The text below walks through data of patent US20230043813A1, “METHODS FOR TARGETED CELL DEPLETION” (The Regents of the University of California, priority 2019, published 2023).

Data set [1] concerns U-251, LN-229, T98G and LN-18 glioblastoma cells. The data set can be described thus: luminescence-based quantification of cell viability. Conditions: over five days. The arrangement: species or system human. How it is done: To investigate the speed of cell elimination by either method, Cas9 expressing TMZ-sensitive U-251 and LN-229, and TMZ-resistant T98G and LN-18, glioblastoma cells were treated with TMZ or these cells were transduced with lentiviral vectors expressing sgCIDEs.

The subject of data set [2] is Cas9 expressing U-251, LN-229, T98G, and LN-18 cells. The data set can be described thus: colony formation assay (crystal violet). In kind it is cell-based, human. Particulars: all four tested GBM cell lines, two weeks. How it is done: Because recurrent tumors develop from cells that escape treatment, either by avoiding exposure, tolerating the effects, or developing resistance, colony formation assays were performed to evaluate the robustness of CRISPR-Cas genome shredding in eliminating target cells.
TMZ-resistant LN-229 cell lines were isolated to determine which types of treatments could overcome such resistance. Cas9 expressing U-251, LN-229, T98G, and LN-18 cells were stably transduced with lentiviral vectors expressing sgNT-1/2 or sgCIDE-1/2/3/6/8/10 (Table 2), and seeded at 100, 1,000, and 10,000 cells per 6-well plate. Control cells were treated with DMSO or TMZ (50 μM).

Data set [3] relates to Cas9 expressing U-251, LN-229, T98G, and LN-18 glioblastoma cells. Kind of data set: cell cycle analysis (PI staining, flow cytometry). In kind it is cell-based, human. Conditions: one to five days; TMZ 50 μM or 100 μM. How it is done: The effects of genome shredding on cell cycle progression were then assessed. Cells were treated with TMZ or sgCIDEs for one to five days and then stained with PI after fixation for analysis by flow cytometry. […] Increases of the Sub-G1 population was more prominent in TP53-mutant U-251 cells compared LN-229 with wild-type TP53, consistent with previous observations that TP53 status affects resolution of the G2/M arrest.
A general note: In flow cytometry, cells or beads pass a laser one at a time.

The next data set has as its system HEK293T and HAP1 cells. The data set can be described thus: mammalian competitive proliferation assay, cells expressing Cas9 WT. It is filed as cell-based, human. Particulars: WT Cas9, eight-day assay period. The source says:
(§1) For assessment of CRISPR-Cas programmed cell depletion using guide RNAs targeting an essential gene (RPA1) or sgCIDEs targeting hundreds of thousands of loci within the genome, cells were stably transduced with a lentiviral vector expressing Cas9-wt (pCF226) or ProCas9Flavi (pCF730) and selected on puromycin. Subsequently, these cell lines were further stably transduced with vectors expressing various mCherry-tagged sgRNAs and analyzed as follows: 1) After mixing sgRNA expressing populations with parental cells, the fraction of mCherry-positive cells was quantified over time. Different sgRNAs targeting a neutral gene (sgOR2B6), an essential gene (sgRPA1), >100,000 genomic loci (sgCIDE) and a non-targeting control (sgNT) were compared. 2) Alternatively, the cell lines were partially transduced with lentiviral vectors expressing a GFP-tagged dTEV (pCF736) or WNV (pCF738) protease, and cell depletion quantified by flow cytometry. Depletion of protease-expressing (GFP+) cells was quantified among the sgRNA-positive (mCherry+) population.
The effect of guide RNA expression on cell viability was assessed using a competitive proliferation assay in which cells expressing a specific sgRNA were mixed with parental cells expressing only Cas9 WT, and the mCherry-positive population was followed over time. […] Guide RNAs targeting the essential RPA1 gene depleted over the eight-day assay period.

Data set [4] concerns Cas9 expressing U-251 and LN-229. Kind of data set: comet assay (genomic fragmentation). It is filed as cell-based, human. Conditions: 24 hours post-transduction, compared to sgNT-1/2/3. The source says:
To look at the genomic effects of repetitive loci targeting, DNA from lysed targeted cells was separated on agarose-coated slides.

The test system of data set [5] is HEK293T and HAP1 cells expressing ProCas9Flavi. Kind of data set: competitive proliferation assay, cells expressing ProCas9Flavi. In kind it is cell-based, human. Particulars: for cell depletion with protease: ProCas9Flavi cells, WNV protease vs dTEV; for cell depletion in the absence of a stimulus: genomically integrated ProCas9Flavi.
Description: as §1
Cas-induced death by editing or ‘CIDE, as an output constrains the performance of ProCas9. The system remains off to minimize genomic damage yet is vigilant to respond to a stimulus. To develop this protease-induced altruistic defense platform, stable expression of the best CIDE guide RNAs (sgCIDE-2, sgCIDE-4) was assessed in conjunction with a genomically integrated ProCas9Flavi cassette to determine cell viability in the absence of a stimulus (FIG. 5B). […] Induction of this stably integrated altruistic defense system was then tested by Flavivirus proteases.

Turning to “sgCIDE-10: guide RNA TTCTCCTGCCTCAGCCTCCC (SEQ ID NO:10) (chemistry not fully specified)”, the “lethality (cell viability)” value in data set [1] was “viral titer-dependent lethality in all four tested glioblastoma cell lines”. In data set [2], the “effect on colony count” value is “over three log-scales reduction in colony count”. Besides, the cell cycle profile result in data set [3] is on record as “rapid increase of the Sub-G1 population starting at day one post-transduction”.

Consider “sgNT-2: non-targeting guide RNA GCGATGGGGGGGTGGGTAGC (SEQ ID NO:30) (chemistry not fully specified) [reference compound]”, for which, in data set [1], the “lethality (cell viability)” value is “no effect”. The “effect on colony count” value in data set [2] was “little effect on colony formation”. For the same substance, the cell cycle profile result in data set [3] was “comparable normal cell cycle profiles”.

For the substance “sgRPA1-2: guide RNA to essential gene RPA1, TACCTGGAGCAACTCCCGAG (SEQ ID NO:36) [reference compound]”, the cell cycle profile result in data set [3] is given as “accumulation in S-phase starting at day three, accompanied by increase of the Sub-G1 population”.

On to “sgOR2B6-2: guide RNA to olfactory receptor gene, GGGTATGAAGTTTGGTGTCC (SEQ ID NO:33) (chemistry not given here) [reference compound]”, for which, in the data set with HEK293T and HAP1 cells, the “depletion of the mCherry-positive population” value is “no depletion”. Besides, the cell cycle profile result in data set [3] is listed as “comparable normal cell cycle profiles”.

“sgNT-1: non-targeting guide RNA GGCCAAACGTGCCCTGACGG (SEQ ID NO:29) (chemistry not fully specified) [reference compound]”: in data set [1], the “lethality (cell viability)” value is “no effect”. Further, in data set [2], the “effect on colony count” value was “little effect on colony formation”. Also, the cell cycle profile result in data set [3] was “comparable normal cell cycle profiles”.

Regarding “sgCIDE-6: guide RNA CCCAGCACTTTGGGAGGCCG (SEQ ID NO:6) (chemistry not fully specified)”, the “lethality (cell viability)” value in data set [1] was “viral titer-dependent lethality in all four tested glioblastoma cell lines”. In addition, the “effect on colony count” value in data set [2] was “over three log-scales reduction in colony count”. The cell cycle profile result in data set [3] was “rapid increase of the Sub-G1 population starting at day one post-transduction”.

As to “sgCIDE-1: guide RNA TGTAATCCCAGCACTTTGGG (SEQ ID NO:1), targets repetitive genomic sites (chemistry not given here)”, the “lethality (cell viability)” value in data set [1] is on record as “viral titer-dependent lethality in all four tested glioblastoma cell lines”. For the same substance, in the data set with HEK293T and HAP1 cells, the “depletion of the mCherry-positive population” value is “rapid elimination of the mCherry-positive population”. The “comet tails (genomic fragmentation)” value in data set [4] is “very long tails”. Moreover, the “effect on colony count” value in data set [2] is “over three log-scales reduction in colony count”. Further, in data set [3], the cell cycle profile result is on record as “rapid increase of the Sub-G1 population starting at day one post-transduction”.

Consider “sgRPA1-3: guide RNA to essential gene RPA1, ACTTTCGTCAACCAGTTCTA (SEQ ID NO:37) [reference compound]”, for which the cell cycle profile result in data set [3] is given as “accumulation in S-phase starting at day three, accompanied by increase of the Sub-G1 population”.

For “sgCIDE-5: guide RNA CCTCGGCCTCCCAAAGTGCT (SEQ ID NO:5) (chemistry not given here)”, in the data set with HEK293T and HAP1 cells, the “depletion of the mCherry-positive population” value is listed as “rapid elimination of the mCherry-positive population”.

For “sgCIDE-2: guide RNA TCCCAAAGTGCTGGGATTAC (SEQ ID NO:2) (chemistry not given here)”, in data set [1], the “lethality (cell viability)” value is recorded as “viral titer-dependent lethality in all four tested glioblastoma cell lines”. In addition, the “depletion of the mCherry-positive population” value in the data set with HEK293T and HAP1 cells is “rapid elimination of the mCherry-positive population”. Also, the “comet tails (genomic fragmentation)” value in data set [4] is listed as “very long tails”. Moreover, the “effect on colony count” value in data set [2] is on record as “over three log-scales reduction in colony count”. Further, in data set [3], the cell cycle profile entry is reported as “rapid increase of the Sub-G1 population starting at day one post-transduction”. In data set [5], the “cell depletion with protease” value is given as “specific cell depletion” and the “cell depletion in the absence of a stimulus” value is on record as “only minimal amounts of cell depletion”.

For “sgCIDE-4: guide RNA CGCCTGTAATCCCAGCACTT (SEQ ID NO:4) (chemistry not given here)”, the “depletion of the mCherry-positive population” value in the data set on HEK293T and HAP1 cells was “rapid elimination of the mCherry-positive population”. In data set [5], the “cell depletion with protease” value is “specific cell depletion” and the “cell depletion in the absence of a stimulus” value was “only minimal amounts of cell depletion”.

“sgCIDE-8: guide RNA CTGTAATCCCAGCACTTTGG (SEQ ID NO:8) (chemistry not fully specified)”: the “lethality (cell viability)” value in data set [1] is “viral titer-dependent lethality in all four tested glioblastoma cell lines”. For the same substance, the “effect on colony count” value in data set [2] is listed as “over three log-scales reduction in colony count”. For the same substance, the cell cycle profile entry in data set [3] is “rapid increase of the Sub-G1 population starting at day one post-transduction”.

For “sgOR2B6-1: guide RNA to olfactory receptor gene, CATTATTCTAGTGTCACGCC (SEQ ID NO:32) (chemistry not given here) [reference compound]”, in the data set with HEK293T and HAP1 cells, the “depletion of the mCherry-positive population” value is recorded as “no depletion”. Also, the cell cycle profile result in data set [3] is reported as “comparable normal cell cycle profiles”.

On to “sgCIDE-3: guide RNA GCCTGTAATCCCAGCACTTT (SEQ ID NO:3) (chemistry not fully specified)”, for which the “lethality (cell viability)” value in data set [1] was “viral titer-dependent lethality in all four tested glioblastoma cell lines”. Besides, the “comet tails (genomic fragmentation)” value in data set [4] is on record as “very long tails”. For the same substance, in data set [2], the “effect on colony count” value is listed as “over three log-scales reduction in colony count”. In addition, the cell cycle profile result in data set [3] is given as “rapid increase of the Sub-G1 population starting at day one post-transduction”.
